Assay results from ChEMBL document CHEMBL3632477 (2015).

Biological target: Glucagon-like peptide 1 receptor (Homo sapiens, UniProt P43220)
Experiment: Agonist activity at human GLP-1R expressed in CHO-K1 cells assessed as increase in cAMP level incubated for 30 mins
Format: functional, cell-based

Glucagon-like peptide 1 receptor, sequence (P43220 whole entry): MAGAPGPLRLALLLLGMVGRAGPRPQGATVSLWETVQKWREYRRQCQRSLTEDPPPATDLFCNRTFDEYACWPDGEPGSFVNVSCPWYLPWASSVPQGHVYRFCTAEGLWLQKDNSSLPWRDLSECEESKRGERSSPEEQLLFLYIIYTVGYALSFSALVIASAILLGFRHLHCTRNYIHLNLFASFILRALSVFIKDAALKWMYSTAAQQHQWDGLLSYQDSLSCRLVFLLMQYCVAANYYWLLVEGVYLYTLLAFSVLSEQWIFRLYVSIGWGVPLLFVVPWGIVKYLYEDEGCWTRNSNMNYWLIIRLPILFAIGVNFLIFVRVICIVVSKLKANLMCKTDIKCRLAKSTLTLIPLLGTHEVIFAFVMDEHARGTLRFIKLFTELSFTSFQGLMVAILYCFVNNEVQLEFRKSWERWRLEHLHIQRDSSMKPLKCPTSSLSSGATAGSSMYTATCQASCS

In the case of CC[C@H](C)[C@@H]1NC(=O)[C@H](CCC(=O)O)NC(=O)[C@@H]2CCCN2C(=O)[C@H](Cc2cnc[nH]2)NC(=O)[C@H](CC(=O)O)NC(=O)[C@H](Cc2ccc(O)cc2)NC(=O)[C@H](CC(N)=O)NC(=O)[C@@H]2CSSC[C@@H]3NC(=O)CNC(=O)CNC(=O)CNC(=O)[C@H](C)NC(=O)[C@H](C)NC(=O)CNC(=O)CNC(=O)[C@H](CSSC[C@H](NC3=O)C(=O)N[C@@H](CO)C(=O)N[C@@H](CC(=O)O)C(=O)N3CCC[C@H]3C(=O)N[C@@H](CCCNC(=N)N)C(=O)N2)NC1=O, the EC50 is reported as 0.14 nM.
